Assays:
[1] = Chemical stability under acidic conditions; type: physicochemical; details: pH 5
Method: The reported chemistry was carried out on a very small scale, with no detailed analysis of the purity profile of the product 1.

thymidilate synthase = details: read-out: IC50 for the enzyme (thymidilate synthase); cited from earlier work
[2] = target: T1, polyglutamoylation synthase enzyme (Homo sapiens, UniProt Q05932); details: cited from earlier work
T1 sequence (Q05932 43-587): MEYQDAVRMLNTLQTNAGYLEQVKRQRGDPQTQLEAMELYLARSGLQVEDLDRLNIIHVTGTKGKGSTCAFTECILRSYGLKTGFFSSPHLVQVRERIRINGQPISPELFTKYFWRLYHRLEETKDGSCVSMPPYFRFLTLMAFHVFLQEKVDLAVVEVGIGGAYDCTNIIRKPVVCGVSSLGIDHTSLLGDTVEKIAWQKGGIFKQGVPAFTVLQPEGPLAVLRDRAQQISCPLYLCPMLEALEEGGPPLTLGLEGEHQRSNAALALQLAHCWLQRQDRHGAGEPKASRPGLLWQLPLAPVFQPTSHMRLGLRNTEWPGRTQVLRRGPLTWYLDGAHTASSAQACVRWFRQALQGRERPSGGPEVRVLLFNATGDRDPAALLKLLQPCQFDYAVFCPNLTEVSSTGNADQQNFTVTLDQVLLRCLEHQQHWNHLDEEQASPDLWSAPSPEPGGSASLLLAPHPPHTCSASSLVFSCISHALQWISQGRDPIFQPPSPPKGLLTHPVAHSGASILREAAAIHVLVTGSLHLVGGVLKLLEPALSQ

folate receptor α (FRα) = folate receptor α (FRα) (Homo sapiens, UniProt P15328); details: read-out: Ki (affinity) for folate receptor α (FRα); cited from earlier work
[3] = target: T2, reduced folate carrier protein (RFCP) (Homo sapiens, UniProt P41440); details: not a substrate for RFCP; cited from earlier work
T2 sequence (P41440 1-591): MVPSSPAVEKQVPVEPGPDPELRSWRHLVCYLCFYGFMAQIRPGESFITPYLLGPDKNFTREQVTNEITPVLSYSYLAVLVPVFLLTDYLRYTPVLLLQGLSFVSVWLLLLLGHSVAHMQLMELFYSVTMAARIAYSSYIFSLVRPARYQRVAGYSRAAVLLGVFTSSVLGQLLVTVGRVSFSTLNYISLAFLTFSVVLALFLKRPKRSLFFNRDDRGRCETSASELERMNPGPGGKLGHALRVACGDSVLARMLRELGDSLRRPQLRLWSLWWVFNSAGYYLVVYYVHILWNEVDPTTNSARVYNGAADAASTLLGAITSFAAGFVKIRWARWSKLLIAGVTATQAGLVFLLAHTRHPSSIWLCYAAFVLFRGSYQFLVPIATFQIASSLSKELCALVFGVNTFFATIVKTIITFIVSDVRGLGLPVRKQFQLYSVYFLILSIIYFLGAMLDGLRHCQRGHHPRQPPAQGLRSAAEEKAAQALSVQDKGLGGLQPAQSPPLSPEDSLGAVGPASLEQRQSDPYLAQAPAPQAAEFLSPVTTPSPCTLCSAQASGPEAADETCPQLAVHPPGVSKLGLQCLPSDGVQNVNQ

folate receptor α (FRα), sequence (P15328 25-234, species assumed): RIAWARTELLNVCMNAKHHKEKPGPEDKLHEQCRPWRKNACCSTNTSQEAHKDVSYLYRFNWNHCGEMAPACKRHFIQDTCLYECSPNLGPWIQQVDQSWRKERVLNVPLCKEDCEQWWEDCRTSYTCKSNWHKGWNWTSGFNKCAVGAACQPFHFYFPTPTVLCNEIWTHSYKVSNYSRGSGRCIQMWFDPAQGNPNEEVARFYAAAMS

| SMILES | Stability in aqueous solution [1] | IC50 (thymidilate synthase) | Substrate for the polyglutamoylation synthase enzyme [2] | Ki (folate receptor α (FRα)) | Ki [3] |
| --- | --- | --- | --- | --- | --- |
| C#CCN(c1ccc(C(=O)N[C@@H](CCC(=O)N[C@H](CCC(=O)O)C(=O)O)C(=O)O)cc1)[C@H]1CCc2cc3nc(CO)[nH]c(=O)c3cc21 [Compound 1, (2,R)-((4,S)-carboxy-4-(4,N-(((6S)-2-(hydroxymethyl)-4-oxo-3,4,7,8-tetrahydro-3H-cyclopenta[g]quinazolin-6-yl)-N-(prop-2-ynyl)amino)benzamido)butanamido)pentanedioic acid] | limited stability | – | – | – | – |
| C#CCN(c1ccc(C(=O)N[C@@H](CCC(=O)N[C@H](CCC(=O)[O-])C(=O)[O-])C(=O)[O-])cc1)[C@H]1CCc2cc3nc(CO)[nH]c(=O)c3cc21.[Na+].[Na+].[Na+] [Compound 2, (2,R)-((4,S)-carboxy-4-(4,N-(((6S)-2-(hydroxymethyl)-4-oxo-3,4,7,8-tetrahydro-3H-cyclopenta[g]quinazolin-6-yl)-N-(prop-2-ynyl)amino)benzamido)butanamido)pentanedioic acid trisodium salt] | – | 3 nM | not a substrate | 0.5 nM | > 250000 nM |

From patent US9458188B2, “Efficient peptide couplings and their use in the synthesis and isolation of a cyclopenta (G) quinazoline trisodium salt” (BTG INTERNATIONAL LIMITED, priority 2010, dated 2016)
